≈ marks a conversion by molar mass, not a printed value. Like-named read-outs stand apart in the source and are kept apart here.
Tests used:
human (hACC2) = human (hACC2) (Homo sapiens, UniProt O00763); experiment: In vitro ACC inhibition assay (ADP-Glo), hACC2; type: biochemical; settings: 5 nM ACC2, 20 μM ATP, 20 μM acetyl-CoA
Procedure: The detailed procedure is as follows. […] 10 μL ADP glo reagent was added. […] 20 μL kinase detection reagent was added.

Rhizoctonia solani (Rs) = experiment: Growth inhibition assay of fungal pathogens, Rs; type: cell-based; settings: 48 h
Procedure: Compounds of the present invention were evaluated in a growth inhibition assay to determine the ability to control the growth of fungal pathogens, such as Botrtyis cinerea (Bc), Collectotrichum graminicola (Cg), Diplodia maydis (Dm), Fusarium moniliforme (Fm), Fusarium virguliforme (Fv), Phytophthora capsici (Pc), Rhizoctonia solani (Rs), and Septoria tritici (St).
Compounds to be tested were dissolved in DMSO at 2.5 mg/ml to produce compound stock solutions (“stocks”). Stocks were diluted with DMSO by a five-fold dilution in a 96-well stock plate, and two sets of final concentrations of 50, 10, and 2 ppm or 2, 0.4, and 0.08 ppm were obtained in vitro. A set of positive controls was also prepared, with various concentrations of Soraphen (2, 0.4, and 0.08 ppm), Metalaxyl (1.1, 0.22, and 0.04 ppm), and Metconazole (2, 0.4, and 0.08 ppm or 0.2, 0.04, and 0.008 ppm) after the five-fold dilutions. Negative controls on each plate included 2% DMSO, water, and a blank (media+2% DMSO).
Fungal spores were isolated from previously sub-cultured plates of Botrtyis cinerea (Bc), Collectotrichum graminicola (Cg), Diplodia maydis (Dm), Fusarium moniliforme (Fm), Fusarium virguliforme (Fv), Phytophthora capsici (Pc), and Septoria tritici (St). The isolated spores were diluted to individual concentrations with a 17% V8 liquid media. For Rhizoctonia solani (Rs) and Pythium irregulare, 1.5 mm mycelial plugs were used in place of spores and/4 Potato Dextrose Broth (PDB) was used for dilution. The spore concentrations and plug sizes were based on growth curves generated at 48 hours for each pathogen.
In a second 96-well plate, the spores or mycelial plugs, media, diluted compound solutions, and controls were combined. Once the compound was added, a true final concentration of compound in each well was measured by an OD600 reading, which adjusted for any compound precipitation that might have occurred in the well. Plate readings were repeated at both 24 and 48 hours. The blank negative control was used as a background subtraction. Additional visual ratings were performed at both 24 and 48 hours for checking on precipitation and confirming efficacy. Visual and OD600 ratings of the compounds at 48 hours were compared to the 2% DMSO negative control, and the percent of pathogen growth inhibition was determined based on those values.

C. albicans = experiment: Antifungal Activity Assay (broth microtiter MIC), C. albicans; type: cell-based, Candida albicans; settings: 3 replicates, MIC recorded at 48 h; for MIC: Candida albicans, ATCC90028, 48 h, ATCC 90028, read-out: MIC, C. albicans ATCC 90028
Summary of the method: (§1)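 CLSI M27-A3 broth microdilution in RPMI 1640+MOPS, final inoculum 2.5×10^3 CFU/mL from overnight Sabouraud cultures grown at 35 °C. MIC read visually at 48 h against growth control.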

C. krusei = experiment: Antifungal Activity Assay (broth microtiter MIC), C. krusei; type: cell-based, Candida krusei; settings: 3 replicates, MIC recorded at 48 h; for MIC: Pichia kudriavzevii, ATCC6258, 48 h, ATCC 6258, read-out: MIC, C. krusei ATCC 6258
Summary of the method: as §1

C. parapsilosis = experiment: Antifungal Activity Assay (broth microtiter MIC), C. parapsilosis; type: cell-based, Candida parapsilosis; settings: 3 replicates, MIC recorded at 48 h; for MIC: Lodderomyces parapsilosis, ATCC22019, 48 h, ATCC 22019, read-out: MIC, C. parapsilosis ATCC 22019
Summary of the method: as §1

fungal (fACC2) = fungal (fACC2) (UniProt Q00955); settings: read-out: fACC2 (in vitro ACC2 Inhibition Assay, IC50), ADP-Glo, 5 nM ACC2, 20 μM ATP, 20 μM acetyl-CoA
[1] = read-out: Concentration at 90% Inhibition Rs, Rhizoctonia solani, mycelial plugs, growth inhibition at 48 hours vs 2% DMSO control
[2] = read-out: Concentration at 90% Inhibition Rs, Rhizoctonia solani, mycelial plugs, growth inhibition vs 2% DMSO control at 48 hours

fungal (fACC2), sequence (Q00955 whole entry): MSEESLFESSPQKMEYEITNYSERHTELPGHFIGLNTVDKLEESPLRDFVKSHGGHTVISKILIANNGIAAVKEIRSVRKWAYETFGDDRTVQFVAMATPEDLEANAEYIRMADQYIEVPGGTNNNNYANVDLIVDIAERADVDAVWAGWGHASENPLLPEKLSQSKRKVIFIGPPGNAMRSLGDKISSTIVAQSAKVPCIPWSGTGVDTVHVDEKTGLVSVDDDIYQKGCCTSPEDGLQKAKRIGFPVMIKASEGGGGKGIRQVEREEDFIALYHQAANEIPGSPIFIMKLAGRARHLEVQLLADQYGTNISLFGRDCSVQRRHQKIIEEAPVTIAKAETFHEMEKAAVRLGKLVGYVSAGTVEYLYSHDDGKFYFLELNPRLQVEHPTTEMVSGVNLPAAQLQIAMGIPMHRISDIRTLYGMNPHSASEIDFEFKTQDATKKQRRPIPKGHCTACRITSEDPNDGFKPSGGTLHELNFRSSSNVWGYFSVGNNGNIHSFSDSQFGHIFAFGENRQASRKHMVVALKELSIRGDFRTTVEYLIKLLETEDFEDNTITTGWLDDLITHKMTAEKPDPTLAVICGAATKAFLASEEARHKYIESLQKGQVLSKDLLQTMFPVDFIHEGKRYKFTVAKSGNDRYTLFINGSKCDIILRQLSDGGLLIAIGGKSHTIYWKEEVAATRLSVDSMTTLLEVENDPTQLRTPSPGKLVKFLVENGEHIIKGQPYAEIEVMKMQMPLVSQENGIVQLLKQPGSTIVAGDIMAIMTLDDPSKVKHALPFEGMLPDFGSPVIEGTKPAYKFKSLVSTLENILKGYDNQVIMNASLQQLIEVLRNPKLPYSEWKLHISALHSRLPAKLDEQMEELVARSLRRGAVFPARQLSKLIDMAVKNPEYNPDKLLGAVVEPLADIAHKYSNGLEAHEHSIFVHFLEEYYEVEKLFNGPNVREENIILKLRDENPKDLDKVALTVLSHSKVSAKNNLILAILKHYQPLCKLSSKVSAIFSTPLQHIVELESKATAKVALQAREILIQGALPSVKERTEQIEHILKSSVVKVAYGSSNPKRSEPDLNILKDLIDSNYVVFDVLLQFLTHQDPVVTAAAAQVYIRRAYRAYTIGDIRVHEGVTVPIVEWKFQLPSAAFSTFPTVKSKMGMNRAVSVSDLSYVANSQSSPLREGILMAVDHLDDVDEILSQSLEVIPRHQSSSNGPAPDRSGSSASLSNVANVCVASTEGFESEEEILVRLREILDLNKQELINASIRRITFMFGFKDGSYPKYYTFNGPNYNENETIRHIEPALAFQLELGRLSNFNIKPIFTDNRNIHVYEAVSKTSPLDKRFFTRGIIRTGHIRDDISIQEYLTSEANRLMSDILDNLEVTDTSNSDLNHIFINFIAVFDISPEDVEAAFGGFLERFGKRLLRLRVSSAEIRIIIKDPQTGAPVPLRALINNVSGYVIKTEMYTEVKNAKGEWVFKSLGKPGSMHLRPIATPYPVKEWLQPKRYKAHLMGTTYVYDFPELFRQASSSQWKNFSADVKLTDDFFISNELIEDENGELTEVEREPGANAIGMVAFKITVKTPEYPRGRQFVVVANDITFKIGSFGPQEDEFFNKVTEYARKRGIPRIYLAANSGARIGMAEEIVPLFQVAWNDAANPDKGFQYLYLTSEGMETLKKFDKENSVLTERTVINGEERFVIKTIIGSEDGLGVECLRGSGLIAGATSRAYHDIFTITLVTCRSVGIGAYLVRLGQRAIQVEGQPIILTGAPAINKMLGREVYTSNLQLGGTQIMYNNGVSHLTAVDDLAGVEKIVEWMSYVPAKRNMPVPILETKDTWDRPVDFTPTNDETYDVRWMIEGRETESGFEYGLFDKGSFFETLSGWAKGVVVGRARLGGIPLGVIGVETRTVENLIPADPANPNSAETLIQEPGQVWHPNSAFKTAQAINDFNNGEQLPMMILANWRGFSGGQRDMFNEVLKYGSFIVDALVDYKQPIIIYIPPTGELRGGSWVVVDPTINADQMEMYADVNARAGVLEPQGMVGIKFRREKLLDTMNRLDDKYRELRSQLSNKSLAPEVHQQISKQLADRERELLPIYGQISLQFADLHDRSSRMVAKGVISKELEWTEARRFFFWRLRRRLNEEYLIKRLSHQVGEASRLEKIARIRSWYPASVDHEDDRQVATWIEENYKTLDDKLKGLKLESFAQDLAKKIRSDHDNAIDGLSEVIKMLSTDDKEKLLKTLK
human (hACC2), sequence (O00763 whole entry): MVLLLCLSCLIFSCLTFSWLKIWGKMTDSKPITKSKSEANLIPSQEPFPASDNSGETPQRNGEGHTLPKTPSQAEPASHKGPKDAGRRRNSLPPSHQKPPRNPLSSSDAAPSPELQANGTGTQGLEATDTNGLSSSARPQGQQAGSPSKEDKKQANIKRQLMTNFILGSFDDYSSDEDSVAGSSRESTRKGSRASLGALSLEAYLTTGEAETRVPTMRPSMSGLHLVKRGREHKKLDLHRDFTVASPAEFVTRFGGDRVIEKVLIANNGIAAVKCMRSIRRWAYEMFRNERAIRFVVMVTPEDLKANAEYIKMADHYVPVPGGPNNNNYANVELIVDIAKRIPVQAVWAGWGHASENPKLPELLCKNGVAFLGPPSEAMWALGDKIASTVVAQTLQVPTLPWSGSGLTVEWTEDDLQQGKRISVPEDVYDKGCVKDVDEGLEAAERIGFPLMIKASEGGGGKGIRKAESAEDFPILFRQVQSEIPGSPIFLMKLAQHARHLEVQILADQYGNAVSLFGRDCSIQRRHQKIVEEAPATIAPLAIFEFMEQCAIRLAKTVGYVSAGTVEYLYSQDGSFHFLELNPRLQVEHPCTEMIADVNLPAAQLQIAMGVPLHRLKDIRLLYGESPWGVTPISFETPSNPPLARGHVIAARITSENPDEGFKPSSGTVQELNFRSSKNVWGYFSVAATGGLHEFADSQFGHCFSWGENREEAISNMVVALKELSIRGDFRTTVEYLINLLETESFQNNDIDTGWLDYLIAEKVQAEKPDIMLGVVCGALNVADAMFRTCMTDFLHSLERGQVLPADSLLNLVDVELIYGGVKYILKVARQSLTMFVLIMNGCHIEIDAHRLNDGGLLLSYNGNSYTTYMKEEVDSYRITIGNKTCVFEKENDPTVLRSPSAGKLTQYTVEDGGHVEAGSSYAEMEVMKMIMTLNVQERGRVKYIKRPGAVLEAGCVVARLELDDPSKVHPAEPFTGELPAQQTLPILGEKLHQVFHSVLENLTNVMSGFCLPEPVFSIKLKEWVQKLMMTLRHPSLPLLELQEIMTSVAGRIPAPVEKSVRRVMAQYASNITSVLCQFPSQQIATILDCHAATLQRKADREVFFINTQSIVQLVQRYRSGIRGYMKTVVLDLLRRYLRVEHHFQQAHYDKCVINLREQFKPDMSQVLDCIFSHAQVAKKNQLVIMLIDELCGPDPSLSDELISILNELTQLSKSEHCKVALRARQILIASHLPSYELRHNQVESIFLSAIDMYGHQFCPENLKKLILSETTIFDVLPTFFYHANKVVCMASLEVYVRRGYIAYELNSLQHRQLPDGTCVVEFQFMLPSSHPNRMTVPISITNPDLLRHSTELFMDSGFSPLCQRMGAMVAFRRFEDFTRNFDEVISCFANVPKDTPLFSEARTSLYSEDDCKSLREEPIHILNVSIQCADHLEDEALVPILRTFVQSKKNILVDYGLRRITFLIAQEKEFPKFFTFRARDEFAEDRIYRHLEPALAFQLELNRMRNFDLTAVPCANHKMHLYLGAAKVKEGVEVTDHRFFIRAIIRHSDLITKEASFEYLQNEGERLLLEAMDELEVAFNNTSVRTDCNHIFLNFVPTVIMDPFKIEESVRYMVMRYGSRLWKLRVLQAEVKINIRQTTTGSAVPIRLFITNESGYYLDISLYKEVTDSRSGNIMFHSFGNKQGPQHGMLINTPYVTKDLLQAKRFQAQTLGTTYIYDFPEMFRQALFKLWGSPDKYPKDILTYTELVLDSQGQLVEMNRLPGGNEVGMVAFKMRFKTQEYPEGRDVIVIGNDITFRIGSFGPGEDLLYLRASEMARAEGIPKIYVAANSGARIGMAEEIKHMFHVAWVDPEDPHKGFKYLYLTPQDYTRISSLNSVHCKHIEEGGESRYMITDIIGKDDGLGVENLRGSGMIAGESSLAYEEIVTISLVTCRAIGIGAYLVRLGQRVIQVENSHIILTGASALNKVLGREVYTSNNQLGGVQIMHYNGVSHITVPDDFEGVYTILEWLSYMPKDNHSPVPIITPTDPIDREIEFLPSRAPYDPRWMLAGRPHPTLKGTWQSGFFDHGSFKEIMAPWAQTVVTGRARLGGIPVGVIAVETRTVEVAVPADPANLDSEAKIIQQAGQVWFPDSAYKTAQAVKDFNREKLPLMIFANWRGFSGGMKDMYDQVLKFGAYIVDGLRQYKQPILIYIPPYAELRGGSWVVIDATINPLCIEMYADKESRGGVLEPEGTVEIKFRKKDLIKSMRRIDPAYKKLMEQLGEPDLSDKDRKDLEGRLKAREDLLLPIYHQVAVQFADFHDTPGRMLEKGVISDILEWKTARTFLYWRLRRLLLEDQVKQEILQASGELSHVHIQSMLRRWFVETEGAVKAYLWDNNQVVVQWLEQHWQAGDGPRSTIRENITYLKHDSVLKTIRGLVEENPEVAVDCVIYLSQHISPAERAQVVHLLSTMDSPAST

Structure (SMILES)	IC50 (human (hACC2); Table 2a) [nM]	IC50 (human (hACC2); Table 2b, additional results) [nM]	IC90 (Rhizoctonia solani (Rs); [1]) [µg/mL]	IC90 (Rhizoctonia solani (Rs); [2]) [µg/mL]	IC90 (Rhizoctonia solani (Rs); mycelial plugs, growth inhibition at 48 hours vs 2% DMSO control, read-out: Concentration at 90% Inhibition Rs) [µg/mL]	IC90 (Rhizoctonia solani (Rs); mycelial plugs, growth inhibition vs 2% DMSO control at 48 hours, read-out: Concentration at 90% Inhibition Rs) [µg/mL]	MIC (C. albicans; Table 3a) [µg/mL]	MIC (C. albicans; Table 3b (additional results)) [µg/mL]	MIC (C. krusei; Table 3a) [µg/mL]	MIC (C. krusei; Table 3b (additional results)) [µg/mL]	MIC (C. parapsilosis; Table 3a) [µg/mL]	MIC (C. parapsilosis; Table 3b (additional results)) [µg/mL]	IC50 (fungal (fACC2); Table 2a) [nM]	IC50 (fungal (fACC2); Table 2b, additional results) [nM]	MIC, C. albicans ATCC 90028 (C. albicans; Table 3a)	MIC, C. albicans ATCC 90028 (C. albicans; Table 3b (additional results))	MIC, C. krusei ATCC 6258 (C. krusei; Table 3a)	MIC, C. krusei ATCC 6258 (C. krusei; Table 3b (additional results))	MIC, C. parapsilosis ATCC 22019 (C. parapsilosis; Table 3a)	MIC, C. parapsilosis ATCC 22019 (C. parapsilosis; Table 3b (additional results))
COCCO[C@@H](Cn1c(=O)n(C(C)(C)C(=O)NC(C)C)c(=O)c2c(C)c(-n3nccn3)sc21)c1cc(F)ccc1OC [Compound I-59, (R)-2-(1-(2-(5-fluoro-2-methoxyphenyl)-2-(2-methoxy-ethoxy)ethyl)-5-methyl-2,4-dioxo-6-(2H-1,2,3-triazol-2-yl)-1,4-dihydro-thieno[2,3-d]pyrimidin-3(2H)-yl)-N-isopropyl-2-methylpropanamide]	5 to 10	5 to 10	0.4 (≈ 0.664 µM)	0.4 (≈ 0.664 µM)	–	–	–	–	–	–	–	–	–	–	–	–	–	–	–	–
COc1ccccc1[C@H](Cn1c(=O)n(C(C)(C)C(=O)N2CCCCC2)c(=O)c2c(C)c(-n3nccn3)sc21)OC1CCOCC1 [Compound I-17, (R)-1-(2-(2-methoxyphenyl)-2-((tetrahydro-2H-pyran-4-yl)oxy)ethyl)-5-methyl-3-(2-methyl-1-oxo-1-(piperidin-1-yl)propan-2-yl)-6-(2H-1,2,3-triazol-2-yl)thieno[2,3-d]pyrimidine-2,4(1H,3H)-dione]	5 to 10	5 to 10	0.08 (≈ 0.126 µM)	0.08 (≈ 0.126 µM)	–	–	–	–	–	–	–	–	–	–	–	–	–	–	–	–
COc1ccc(F)cc1[C@H](Cn1c(=O)n(C(C)C(=O)N2CCCC2)c(=O)c2c(C)c(-n3nccn3)sc21)OC(C)C (stereo partly drawn) [Compound I-40, 1-((R)-2-(5-fluoro-2-methoxyphenyl)-2-isopropoxyethyl)-5-methyl-3-(1-oxo-1-(pyrrolidin-1-yl)propan-2-yl)-6-(2H-1,2,3-triazol-2-yl)thieno[2,3-d]pyrimidine-2,4(1H,3H)-dione]	5 to 10	5 to 10	–	–	0.4 (≈ 0.684 µM)	0.08 (≈ 0.137 µM)	–	–	–	–	–	–	–	–	–	–	–	–	–	–
COc1ccc(F)cc1[C@H](Cn1c(=O)n(C(C)(C)C(=O)O)c(=O)c2c(C)c(-n3nccn3)sc21)OCC(C)(C)C#N [Compound I-149, 2-[1-[(2R)-2-(2-cyano-2,2-dimethylethoxy)-2-(5-fluoro-2-methoxyphenyl)ethyl]-5-methyl-2,4-dioxo-6-(2H-1,2,3-triazol-2-yl)-1H,2H,3H,4H-thieno[2,3-d]pyrimidin-3-yl]-2-methylpropanoic acid]	1 to 5	1 to 5	–	–	–	–	2.1 to 4 (≈ 3.59 to 6.84 µM)	1.01 to 2 (≈ 1.73 to 3.42 µM)	2.1 to 4 (≈ 3.59 to 6.84 µM)	> 4.01	2.1 to 4 (≈ 3.59 to 6.84 µM)	> 4.01	1 to 5	1 to 5	–	–	–	–	–	–
COc1ccc(F)cc1[C@H](Cn1c(=O)n(C(C)(C)C(=O)NC(C)C)c(=O)c2c(C)c(-n3nccn3)sc21)O[C@H]1CC[C@@H](C(=O)O)CC1 [Compound I-265]	–	10 to 40	–	–	–	–	–	0.25 to 1 (≈ 0.373 to 1.49 µM)	–	0.06 to 0.249 (≈ 0.0895 to 0.371 µM)	–	0.25 to 1 (≈ 0.373 to 1.49 µM)	–	1 to 5	–	–	–	–	–	–
C=CCNC(=O)C(C)(C)n1c(=O)c2c(C)c(-n3nccn3)sc2n(C[C@H](OC(C)C)c2cc(F)ccc2OC)c1=O [Compound I-120]	5 to 10	5 to 10	–	–	–	–	0.25 to 1 (≈ 0.428 to 1.71 µM)	1.01 to 2 (≈ 1.73 to 3.42 µM)	0.25 to 1 (≈ 0.428 to 1.71 µM)	0.25 to 1 (≈ 0.428 to 1.71 µM)	0.25 to 1 (≈ 0.428 to 1.71 µM)	2.01 to 4 (≈ 3.44 to 6.84 µM)	1 to 5	1 to 5	–	–	–	–	–	–
COCCO[C@@H](Cn1c(=O)n(C(C)(C)C(=O)NC2CCC2)c(=O)c2c(C)c(-n3nccn3)sc21)c1cc(F)ccc1OC [Compound I-102]	1 to 5	1 to 5	–	–	–	–	–	–	–	–	–	–	1 to 5	1 to 5	A (MIC of 0.25-1.0 μg/mL)	C (MIC of 2.01-4.0 μg/mL)	A (MIC of 0.25-1.0 μg/mL)	A (MIC of 0.25-1.0 μg/mL)	A (MIC of 0.25-1.0 μg/mL)	A (MIC of 0.25-1.0 μg/mL)
COc1ccc(F)cc1[C@H](Cn1c(=O)n(C(C)(C)C(=O)NC2CCC2)c(=O)c2c(C)c(-n3nccn3)sc21)OCCC(C)=O [Compound I-105]	1 to 5	1 to 5	–	–	–	–	0.25 to 1 (≈ 0.399 to 1.6 µM)	1.01 to 2 (≈ 1.61 to 3.19 µM)	0.06 to 0.24 (≈ 0.0957 to 0.383 µM)	0.25 to 1 (≈ 0.399 to 1.6 µM)	0.25 to 1 (≈ 0.399 to 1.6 µM)	0.25 to 1 (≈ 0.399 to 1.6 µM)	0.4 to 1	0.3 to 1	–	–	–	–	–	–
COCCOc1ccc(F)cc1[C@H](Cn1c(=O)n(C(C)(C)C(=O)NC(C)C)c(=O)c2c(C)c(-n3nccn3)sc21)OCCOC [Compound I-122]	10 to 40	10 to 40	–	–	–	–	2.1 to 4 (≈ 3.25 to 6.18 µM)	2.01 to 4 (≈ 3.11 to 6.18 µM)	0.25 to 1 (≈ 0.387 to 1.55 µM)	1.01 to 2 (≈ 1.56 to 3.09 µM)	1.1 to 2 (≈ 1.7 to 3.09 µM)	1.01 to 2 (≈ 1.56 to 3.09 µM)	1 to 5	1 to 5	–	–	–	–	–	–
Cc1c(-n2nccn2)sc2c1c(=O)n(C(C)(C)C(=O)NC(C)C)c(=O)n2C[C@H](OC1CCOCC1)c1cc(F)ccc1OCC#N [Compound I-116]	5 to 10	5 to 10	–	–	–	–	0.25 to 1 (≈ 0.382 to 1.53 µM)	0.25 to 1 (≈ 0.382 to 1.53 µM)	0.25 to 1 (≈ 0.382 to 1.53 µM)	0.25 to 1 (≈ 0.382 to 1.53 µM)	0.25 to 1 (≈ 0.382 to 1.53 µM)	0.25 to 1 (≈ 0.382 to 1.53 µM)	0.4 to 1	0.3 to 1	–	–	–	–	–	–
Cc1c(-n2nccn2)sc2c1c(=O)n(C(C)(C)C(=O)NC(C)C)c(=O)n2C[C@H](OC1CCOCC1)c1cc(F)ccc1OCC1COC1 [Compound I-108]	1 to 5	1 to 5	–	–	–	–	0.25 to 1 (≈ 0.365 to 1.46 µM)	0.25 to 1 (≈ 0.365 to 1.46 µM)	0.25 to 1 (≈ 0.365 to 1.46 µM)	0.25 to 1 (≈ 0.365 to 1.46 µM)	0.25 to 1 (≈ 0.365 to 1.46 µM)	0.25 to 1 (≈ 0.365 to 1.46 µM)	1 to 5	1 to 5	–	–	–	–	–	–
COCCO[C@@H](Cn1c(=O)n([C@@H](C)C(=O)NC(C)C)c(=O)c2c(C)c(-n3nccn3)sc21)c1cc(F)ccc1OC [Compound I-83, (S)-2-(1-((R)-2-(5-fluoro-2-methoxyphenyl)-2-(2-methoxy-ethoxy)ethyl)-5-methyl-2,4-dioxo-6-(2H-1,2,3-triazol-2-yl)-1,4-dihydrothieno[2,3-d]pyrimidin-3(2H)-yl)-N-isopropylpropanamide]	> 40	> 40	–	–	–	–	2.1 to 4 (≈ 3.57 to 6.8 µM)	> 4.01	2.1 to 4 (≈ 3.57 to 6.8 µM)	2.01 to 4 (≈ 3.41 to 6.8 µM)	2.1 to 4 (≈ 3.57 to 6.8 µM)	1.01 to 2 (≈ 1.72 to 3.4 µM)	1 to 5	1 to 5	–	–	–	–	–	–
COc1ccc(F)cc1[C@H](Cn1c(=O)n([C@H](C)C(=O)N(C)C(C)C)c(=O)c2c(C)c(-n3nccn3)sc21)OCC(C)(C)O [Compound I-169]	> 40	> 40	–	–	–	–	–	0.25 to 1 (≈ 0.405 to 1.62 µM)	–	> 4.01	–	2.01 to 4 (≈ 3.26 to 6.49 µM)	1 to 5	1 to 5	–	–	–	–	–	–
